Assays:
VbTA T16F = target: T1, VbTA T16F (Virgibacillus pantothenticus, UniProt A0A4P1LYG1); assay: X-ray crystal structure, […] Å; type: binding; conditions: active site; non-covalent, no aldimine bond with K273
T1 construct: N-terminal His-tag (pET100-D-TOPO), codon-optimised, E. coli BL21(DE3), His-trap purified; native 448 residues (1350 bp); homodimer 104 kDa; residues 2-444 in crystal

[1] = target: VbTA T16F (transaminase from Virgibacillus sp. 21D, T16F mutant) (Virgibacillus sp. 21D); assay: SEC; Superdex 200 (10/300) GL, 20 mM phosphate buffer pH 8.0, 150 mM NaCl, 0.2 mL/min, 4 °C, calibrated with MW markers

T1 sequence (A0A4P1LYG1 entry or part of it, stated change not applied): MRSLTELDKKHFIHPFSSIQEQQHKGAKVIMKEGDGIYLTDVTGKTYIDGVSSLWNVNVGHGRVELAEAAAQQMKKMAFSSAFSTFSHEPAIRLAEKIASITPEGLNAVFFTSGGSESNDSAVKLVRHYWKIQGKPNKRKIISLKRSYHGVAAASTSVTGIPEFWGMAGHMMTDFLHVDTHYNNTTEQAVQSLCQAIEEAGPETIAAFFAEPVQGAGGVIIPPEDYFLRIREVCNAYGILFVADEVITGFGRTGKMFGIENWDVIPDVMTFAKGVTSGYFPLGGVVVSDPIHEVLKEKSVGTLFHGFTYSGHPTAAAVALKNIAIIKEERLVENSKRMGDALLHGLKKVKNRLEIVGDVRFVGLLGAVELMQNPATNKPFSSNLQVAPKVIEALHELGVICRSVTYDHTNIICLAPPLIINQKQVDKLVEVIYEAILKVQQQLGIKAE

stoichiometry N [1]	Compound	X-ray crystal structure, 2.0 Å (VbTA T16F)
	Cc1ncc(COP(=O)(O)O)c(C=O)c1O [PLP]	One molecule of PLP was bound at the active site
2	VbTA T16F (transaminase from Virgibacillus sp. 21D, T16F mutant) (enzyme)	
